Laboratory results: article PMC8490825 (Frontiers in Molecular Biosciences, 2021)
Like-named read-outs stand apart in the source and are kept apart here. Where a SMILES comes first, the peptide text is derived from it. Bridges are numbered along the chain shown (N, C = ends).

Legend:
hNaV1.1 = hNaV1.1 (Homo sapiens, UniProt P35498); assay: cell-based; format: cell-based
hNaV1.7 [1] = molecular target: T1, hNaV1.7 (Homo sapiens, UniProt Q15858); assay: cell-based; format: cell-based
hNaV1.3 = hNaV1.3 (Homo sapiens, UniProt Q9NY46); assay: cell-based; conditions: N = 3-4; SEM; read-out: IC50 ± SEM, NaV1.3
hNaV1.4 = hNaV1.4 (Homo sapiens, UniProt P35499); assay: cell-based; format: cell-based; conditions: for IC50: N = 4, read-out: IC50 ± SEM, NaV1.4
hNaV1.6 = hNaV1.6 (Homo sapiens, UniProt Q9UQD0); assay: cell-based; conditions: N = 4; SEM; read-out: IC50 ± SEM, NaV1.6
hNaV1.5 = hNaV1.5 (Homo sapiens, UniProt Q14524); assay: cell-based; format: cell-based; conditions: for IC50: N = 3-4, read-out: IC50 ± SEM, NaV1.5
hNaV1.2 = hNaV1.2 (Homo sapiens, UniProt Q99250); assay: cell-based; conditions: N = 3-6; SEM; read-out: IC50 ± SEM, NaV1.2
[2] = test system: endogenous K+ currents from non-transfected HEK293 cells; format: cell-based
[3] = test system: rKV2.1/hNaV1.1 chimera containing the paddles S3–S4 from DII from NaV1.1; format: cell-based
hNaV1.7 [4] = molecular target: T1, hNaV1.7; format: cell-based; conditions: SEM
[5] = N = 4-5, SEM, read-out: IC50 ± SEM, NaV1.1
[6] = N = 3-4, SEM, read-out: IC50 ± SEM, NaV1.7

hNaV1.5, sequence (Q14524 whole entry, looked up): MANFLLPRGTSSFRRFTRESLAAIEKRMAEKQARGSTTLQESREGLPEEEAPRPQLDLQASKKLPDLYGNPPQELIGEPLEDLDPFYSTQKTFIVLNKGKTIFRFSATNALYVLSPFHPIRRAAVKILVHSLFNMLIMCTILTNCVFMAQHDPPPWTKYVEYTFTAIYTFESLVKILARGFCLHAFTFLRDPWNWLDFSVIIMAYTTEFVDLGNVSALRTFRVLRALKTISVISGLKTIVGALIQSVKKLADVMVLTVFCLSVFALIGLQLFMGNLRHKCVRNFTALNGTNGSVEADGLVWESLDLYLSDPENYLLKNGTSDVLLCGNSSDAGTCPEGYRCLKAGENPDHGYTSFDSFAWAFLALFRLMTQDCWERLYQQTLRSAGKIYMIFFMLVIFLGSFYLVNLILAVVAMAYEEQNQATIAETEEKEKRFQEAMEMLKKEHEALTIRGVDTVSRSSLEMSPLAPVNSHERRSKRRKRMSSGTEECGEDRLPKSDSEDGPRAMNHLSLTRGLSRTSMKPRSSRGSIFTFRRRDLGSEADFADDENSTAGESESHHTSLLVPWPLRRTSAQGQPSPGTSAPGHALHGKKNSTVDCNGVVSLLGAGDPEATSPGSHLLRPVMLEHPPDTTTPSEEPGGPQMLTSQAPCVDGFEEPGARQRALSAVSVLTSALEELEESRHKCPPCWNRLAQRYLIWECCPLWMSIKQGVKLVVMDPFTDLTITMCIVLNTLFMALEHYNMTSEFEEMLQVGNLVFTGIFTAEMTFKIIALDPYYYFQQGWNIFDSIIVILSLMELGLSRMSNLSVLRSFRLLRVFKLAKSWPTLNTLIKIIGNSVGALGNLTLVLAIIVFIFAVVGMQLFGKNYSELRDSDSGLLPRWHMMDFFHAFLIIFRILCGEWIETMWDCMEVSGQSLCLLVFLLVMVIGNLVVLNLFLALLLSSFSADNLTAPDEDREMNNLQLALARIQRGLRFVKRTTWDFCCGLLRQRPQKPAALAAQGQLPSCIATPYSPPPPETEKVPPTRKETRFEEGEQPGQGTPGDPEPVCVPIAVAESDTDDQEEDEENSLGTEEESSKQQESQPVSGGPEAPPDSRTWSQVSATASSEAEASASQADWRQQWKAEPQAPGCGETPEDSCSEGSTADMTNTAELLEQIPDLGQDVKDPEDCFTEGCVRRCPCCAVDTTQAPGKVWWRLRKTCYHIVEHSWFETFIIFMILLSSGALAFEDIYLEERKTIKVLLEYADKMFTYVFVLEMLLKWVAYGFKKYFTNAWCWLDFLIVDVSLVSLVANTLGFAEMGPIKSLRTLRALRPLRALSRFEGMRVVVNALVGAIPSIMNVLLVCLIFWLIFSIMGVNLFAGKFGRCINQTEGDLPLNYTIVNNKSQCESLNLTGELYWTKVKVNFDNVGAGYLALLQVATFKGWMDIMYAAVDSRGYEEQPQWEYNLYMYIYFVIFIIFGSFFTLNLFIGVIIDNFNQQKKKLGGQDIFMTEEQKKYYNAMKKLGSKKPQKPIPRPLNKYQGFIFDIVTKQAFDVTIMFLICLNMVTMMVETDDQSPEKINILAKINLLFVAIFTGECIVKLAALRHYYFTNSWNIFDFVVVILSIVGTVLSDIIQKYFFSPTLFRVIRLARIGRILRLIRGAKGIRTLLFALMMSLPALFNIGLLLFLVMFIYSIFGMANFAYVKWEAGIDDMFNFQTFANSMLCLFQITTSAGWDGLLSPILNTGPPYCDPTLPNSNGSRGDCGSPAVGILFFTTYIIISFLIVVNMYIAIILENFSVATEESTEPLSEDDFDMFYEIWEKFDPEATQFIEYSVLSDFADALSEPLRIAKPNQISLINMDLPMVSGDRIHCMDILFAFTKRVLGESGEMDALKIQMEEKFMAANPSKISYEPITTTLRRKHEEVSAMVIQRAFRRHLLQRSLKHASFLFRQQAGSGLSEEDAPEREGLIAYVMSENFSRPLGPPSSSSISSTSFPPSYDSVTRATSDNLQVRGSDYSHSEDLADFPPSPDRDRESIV
T1 sequence (Q15858 whole entry, looked up): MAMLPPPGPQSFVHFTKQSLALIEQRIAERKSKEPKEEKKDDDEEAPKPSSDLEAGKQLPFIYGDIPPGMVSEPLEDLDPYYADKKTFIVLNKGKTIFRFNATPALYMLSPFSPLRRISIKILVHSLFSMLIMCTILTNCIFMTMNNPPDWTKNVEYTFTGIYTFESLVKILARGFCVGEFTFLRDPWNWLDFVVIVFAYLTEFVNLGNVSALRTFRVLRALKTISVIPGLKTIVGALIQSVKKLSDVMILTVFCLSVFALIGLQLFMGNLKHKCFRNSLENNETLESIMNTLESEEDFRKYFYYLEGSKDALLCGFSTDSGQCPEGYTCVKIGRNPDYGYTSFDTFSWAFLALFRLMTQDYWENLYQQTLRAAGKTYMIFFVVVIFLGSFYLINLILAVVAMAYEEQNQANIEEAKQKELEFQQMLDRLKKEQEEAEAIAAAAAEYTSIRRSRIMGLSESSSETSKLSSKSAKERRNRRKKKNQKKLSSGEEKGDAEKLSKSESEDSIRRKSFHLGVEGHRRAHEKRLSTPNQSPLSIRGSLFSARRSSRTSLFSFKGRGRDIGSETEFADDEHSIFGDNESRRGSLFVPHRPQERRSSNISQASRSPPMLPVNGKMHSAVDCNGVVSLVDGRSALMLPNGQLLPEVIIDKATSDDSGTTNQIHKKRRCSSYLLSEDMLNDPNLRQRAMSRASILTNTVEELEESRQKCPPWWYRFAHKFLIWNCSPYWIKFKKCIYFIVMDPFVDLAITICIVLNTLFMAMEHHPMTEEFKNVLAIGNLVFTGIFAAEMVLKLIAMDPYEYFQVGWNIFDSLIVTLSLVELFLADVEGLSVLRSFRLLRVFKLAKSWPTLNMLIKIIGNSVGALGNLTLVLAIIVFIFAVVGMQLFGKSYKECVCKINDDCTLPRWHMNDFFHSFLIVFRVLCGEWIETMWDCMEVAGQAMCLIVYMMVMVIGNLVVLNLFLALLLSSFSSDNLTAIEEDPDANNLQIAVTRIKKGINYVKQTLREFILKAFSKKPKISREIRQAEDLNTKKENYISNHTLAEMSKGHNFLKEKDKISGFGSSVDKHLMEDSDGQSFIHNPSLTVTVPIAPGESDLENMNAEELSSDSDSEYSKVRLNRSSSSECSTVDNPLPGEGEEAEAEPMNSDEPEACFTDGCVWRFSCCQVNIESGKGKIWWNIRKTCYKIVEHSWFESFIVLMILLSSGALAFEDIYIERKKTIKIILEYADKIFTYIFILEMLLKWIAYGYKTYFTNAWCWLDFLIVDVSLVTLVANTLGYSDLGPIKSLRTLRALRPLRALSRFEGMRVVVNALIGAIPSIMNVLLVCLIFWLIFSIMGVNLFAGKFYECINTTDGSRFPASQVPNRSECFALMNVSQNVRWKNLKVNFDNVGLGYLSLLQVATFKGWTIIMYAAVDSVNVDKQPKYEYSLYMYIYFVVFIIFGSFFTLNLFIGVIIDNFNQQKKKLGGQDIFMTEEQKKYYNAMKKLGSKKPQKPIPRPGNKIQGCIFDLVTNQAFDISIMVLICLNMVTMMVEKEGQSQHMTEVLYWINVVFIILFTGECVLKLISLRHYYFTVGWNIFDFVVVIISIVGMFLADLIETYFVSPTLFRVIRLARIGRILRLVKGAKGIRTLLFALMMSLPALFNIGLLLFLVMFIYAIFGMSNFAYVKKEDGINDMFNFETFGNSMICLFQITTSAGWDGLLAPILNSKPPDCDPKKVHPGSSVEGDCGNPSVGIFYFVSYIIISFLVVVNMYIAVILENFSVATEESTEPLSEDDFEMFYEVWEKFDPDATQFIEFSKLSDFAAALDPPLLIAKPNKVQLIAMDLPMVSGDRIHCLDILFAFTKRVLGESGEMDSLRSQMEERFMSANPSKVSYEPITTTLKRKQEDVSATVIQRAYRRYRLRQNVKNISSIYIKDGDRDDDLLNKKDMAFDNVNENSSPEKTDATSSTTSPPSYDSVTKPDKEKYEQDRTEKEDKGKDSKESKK

For `CSCC[C@@H]1NC(=O)CNC(=O)[C@H](CC(C)C)NC(=O)[C@@H](NC(=O)[C@H](CC(=O)O)NC(=O)[C@H](CC(=O)O)NC(=O)CN)CSSC[C@@H]2NC(=O)[C@@H]3CSSC[C@@H](C(=O)N[C@@H](C)C(=O)N[C@@H](Cc4ccc(O)cc4)C(=O)N[C@@H](CCC(N)=O)C(=O)N[C@@H](CC(C)C)C(=O)N[C@@H](Cc4c[nH]c5ccccc45)C(=O)O)NC(=O)[C@H](Cc4c[nH]c5ccccc45)NC(=O)[C@H](CCC(N)=O)NC(=O)[C@H](CC(=O)O)NC(=O)[C@H](CCCCN)NC(=O)[C@H](CCCNC(=N)N)NC(=O)[C@H](CO)NC(=O)[C@H](CSSC[C@H](NC(=O)[C@H](CO)NC(=O)[C@H](CO)NC(=O)[C@H](Cc4ccccc4)NC1=O)C(=O)N[C@@H](CC(=O)O)C(=O)N1CCC[C@H]1C(=O)N[C@@H](CC(N)=O)C(=O)N[C@@H](CC(N)=O)C(=O)N[C@@H](CC(=O)O)C(=O)N[C@@H](CCCCN)C(=O)N3)NC(=O)[C@H](CCCCN)NC(=O)[C@H](CCCNC(=N)N)NC(=O)[C@H](CC(N)=O)NC(=O)[C@@H]1CCCN1C2=O` [Peptide K31A] (H-GDDCLGMFSSCDPNNDKCCPNRKCSRKDQWCAYQLW-OH; disulfide 4-19, 11-24, 18-31), the IC50 (hNaV1.1) was greater than 1000 nM, the “inhibition of NaV1.1, in words” value (hNaV1.1) was “loss of activity” and the IC50 (hNaV1.7 [1]) was greater than 1000 nM. The “inhibition of NaV1.7, in words” value (hNaV1.7 [1]) was “loss of activity”.
For `CC[C@H](C)[C@@H]1NC(=O)CNC(=O)[C@H](CC(C)C)NC(=O)[C@@H](NC(=O)CNC(=O)CN)CSSC[C@@H]2NC(=O)[C@@H]3CSSC[C@@H](C(=O)N[C@@H](CCCCN)C(=O)N[C@@H](Cc4c[nH]c5ccccc45)C(=O)N[C@@H](CCCCN)C(=O)N[C@@H](CC(C)C)C(=O)N[C@@H](Cc4c[nH]c5ccccc45)C(=O)O)NC(=O)[C@H](Cc4c[nH]c5ccccc45)NC(=O)[C@H](CCCNC(=N)N)NC(=O)[C@H](Cc4c[nH]cn4)NC(=O)[C@H](CCCCN)NC(=O)[C@H](CCCCN)NC(=O)[C@H](CO)NC(=O)[C@H](CSSC[C@H](NC(=O)[C@H](CO)NC(=O)[C@H](CO)NC(=O)[C@H](C)NC1=O)C(=O)N[C@@H](CC(=O)O)C(=O)N1CCC[C@H]1C(=O)N[C@@H](CCC(=O)O)C(=O)N[C@@H](CC(N)=O)C(=O)N[C@@H](CC(=O)O)C(=O)N[C@@H](CCCCN)C(=O)N3)NC(=O)[C@H](C(C)C)NC(=O)[C@H](CCCNC(=N)N)NC(=O)[C@H](CC(N)=O)NC(=O)[C@H](Cc1ccc(O)cc1)NC2=O` [Tap1a-OPT2] (H-GGCLGIASSCDPENDKCCYNRVCSKKHRWCKWKLW-OH; disulfide 3-18, 10-23, 17-30), the IC50 (hNaV1.3) was 96 ± 9 nM, the “inhibition of NaV1.4, in words” value (hNaV1.4) was “did not significantly inhibit” and the “loss of activity for NaV1.4 compared to Tap1a-OPT1” value (hNaV1.4) was “at least 10 fold”. The IC50 (hNaV1.4) was greater than 1000 nM, the IC50 (hNaV1.6) was 75 ± 11 nM and the “inhibition of NaV1.5, in words” value (hNaV1.5) was “did not significantly inhibit”. For the same compound, the IC50 (hNaV1.5) was greater than 1000 nM, the IC50 (hNaV1.1; [5]) was 54 ± 9 nM and the “loss of activity for NaV1.7 compared to Tap1a-OPT1” value (hNaV1.7 [1]) was 2 fold. For the same compound, the IC50 (hNaV1.7 [1]; [6]) was 35 ± 2 nM and the IC50 (hNaV1.2) was 43 ± 5 nM.
For `CSCC[C@@H]1NC(=O)CNC(=O)[C@H](CC(C)C)NC(=O)[C@@H](NC(=O)[C@H](CC(=O)O)NC(=O)[C@H](CC(=O)O)NC(=O)CN)CSSC[C@@H]2NC(=O)[C@@H]3CSSC[C@@H](C(=O)N[C@@H](CCCCN)C(=O)N[C@@H](C)C(=O)N[C@@H](CCC(N)=O)C(=O)N[C@@H](CC(C)C)C(=O)N[C@@H](Cc4c[nH]c5ccccc45)C(=O)O)NC(=O)[C@H](Cc4c[nH]c5ccccc45)NC(=O)[C@H](CCC(N)=O)NC(=O)[C@H](CC(=O)O)NC(=O)[C@H](CCCCN)NC(=O)[C@H](CCCNC(=N)N)NC(=O)[C@H](CO)NC(=O)[C@H](CSSC[C@H](NC(=O)[C@H](CO)NC(=O)[C@H](CO)NC(=O)[C@H](Cc4ccccc4)NC1=O)C(=O)N[C@@H](CC(=O)O)C(=O)N1CCC[C@H]1C(=O)N[C@@H](CC(N)=O)C(=O)N[C@@H](CC(N)=O)C(=O)N[C@@H](CC(=O)O)C(=O)N[C@@H](CCCCN)C(=O)N3)NC(=O)[C@H](CCCCN)NC(=O)[C@H](CCCNC(=N)N)NC(=O)[C@H](CC(N)=O)NC(=O)[C@@H]1CCCN1C2=O` [Peptide Y32A] (H-GDDCLGMFSSCDPNNDKCCPNRKCSRKDQWCKAQLW-OH; disulfide 4-19, 11-24, 18-31), the IC50 (hNaV1.1) was greater than 1000 nM and the IC50 (hNaV1.7 [1]) was greater than 1000 nM.
`COC(=O)C1=C(C)NC(C)=C(C(=O)OC)C1c1ccccc1[N+](=O)[O-]` [nifedipine] was tested, and the “effect on endogenous potassium currents of non-transfected HEK293 cells” value [2] was “inhibited” and the “effect on potassium currents of cells transfected with the chimera KV2.1/NaV1.1 VSDII” value [3] was “sensitive”.
With `CSCC[C@@H]1NC(=O)CNC(=O)[C@H](CC(C)C)NC(=O)[C@@H](NC(=O)[C@H](CC(=O)O)NC(=O)[C@H](CC(=O)O)NC(=O)CN)CSSC[C@@H]2NC(=O)[C@@H]3CSSC[C@@H](C(=O)N[C@@H](CCCCN)C(=O)N[C@@H](Cc4ccc(O)cc4)C(=O)N[C@@H](CCC(N)=O)C(=O)N[C@@H](CC(C)C)C(=O)N[C@@H](Cc4c[nH]c5ccccc45)C(=O)O)NC(=O)[C@H](Cc4c[nH]c5ccccc45)NC(=O)[C@H](CCC(N)=O)NC(=O)[C@H](CC(=O)O)NC(=O)[C@H](CCCCN)NC(=O)[C@H](CCCNC(=N)N)NC(=O)[C@H](C)NC(=O)[C@H](CSSC[C@H](NC(=O)[C@H](CO)NC(=O)[C@H](CO)NC(=O)[C@H](Cc4ccccc4)NC1=O)C(=O)N[C@@H](CC(=O)O)C(=O)N1CCC[C@H]1C(=O)N[C@@H](CC(N)=O)C(=O)N[C@@H](CC(N)=O)C(=O)N[C@@H](CC(=O)O)C(=O)N[C@@H](CCCCN)C(=O)N3)NC(=O)[C@H](CCCCN)NC(=O)[C@H](CCCNC(=N)N)NC(=O)[C@H](CC(N)=O)NC(=O)[C@@H]1CCCN1C2=O` [Peptide S24A] (H-GDDCLGMFSSCDPNNDKCCPNRKCARKDQWCKYQLW-OH; disulfide 4-19, 11-24, 18-31) the IC50 (hNaV1.1) was greater than 1000 nM and the IC50 (hNaV1.7 [1]) was 920 nM.
`CSCC[C@@H]1NC(=O)CNC(=O)[C@H](CC(C)C)NC(=O)[C@@H](NC(=O)[C@H](CC(=O)O)NC(=O)[C@H](CC(=O)O)NC(=O)CN)CSSC[C@@H]2NC(=O)[C@@H]3CSSC[C@@H](C(=O)N[C@@H](CCCCN)C(=O)N[C@@H](Cc4ccc(O)cc4)C(=O)N[C@@H](CCC(N)=O)C(=O)N[C@@H](CC(C)C)C(=O)N[C@@H](Cc4c[nH]c5ccccc45)C(=O)O)NC(=O)[C@H](Cc4c[nH]c5ccccc45)NC(=O)[C@H](CCC(N)=O)NC(=O)[C@H](CC(=O)O)NC(=O)[C@H](CCCCN)NC(=O)[C@H](CCCNC(=N)N)NC(=O)[C@H](CO)NC(=O)[C@H](CSSC[C@H](NC(=O)[C@H](CO)NC(=O)[C@H](CO)NC(=O)[C@H](Cc4ccccc4)NC1=O)C(=O)N[C@@H](CC(=O)O)C(=O)N1CCC[C@H]1C(=O)N[C@@H](CC(N)=O)C(=O)N[C@@H](CC(N)=O)C(=O)N[C@@H](C)C(=O)N[C@@H](CCCCN)C(=O)N3)NC(=O)[C@H](CCCCN)NC(=O)[C@H](CCCNC(=N)N)NC(=O)[C@H](CC(N)=O)NC(=O)[C@@H]1CCCN1C2=O` [Peptide D15A] (H-GDDCLGMFSSCDPNNAKCCPNRKCSRKDQWCKYQLW-OH; disulfide 4-19, 11-24, 18-31) gave an IC50 (hNaV1.1) greater than 1000 nM and an IC50 (hNaV1.7 [1]) greater than 1000 nM.
`CC[C@H](C)[C@@H]1NC(=O)CNC(=O)[C@H](CC(C)C)NC(=O)[C@@H](NC(=O)CNC(=O)CN)CSSC[C@@H]2NC(=O)[C@@H]3CSSC[C@@H](C(=O)N[C@@H](CCCCN)C(=O)N[C@@H](Cc4c[nH]c5ccccc45)C(=O)N[C@@H](CCCCN)C(=O)N[C@@H](CC(C)C)C(=O)N[C@@H](Cc4c[nH]c5ccccc45)C(=O)O)NC(=O)[C@H](Cc4c[nH]c5ccccc45)NC(=O)[C@H](CCCNC(=N)N)NC(=O)[C@H](Cc4c[nH]cn4)NC(=O)[C@H](CCCCN)NC(=O)[C@H](CCCCN)NC(=O)[C@H](CO)NC(=O)[C@H](CSSC[C@H](NC(=O)[C@H](CO)NC(=O)[C@H](CO)NC(=O)[C@H](Cc4ccccc4)NC1=O)C(=O)N[C@@H](CC(=O)O)C(=O)N1CCC[C@H]1C(=O)N[C@@H](CCC(=O)O)C(=O)N[C@@H](CC(N)=O)C(=O)N[C@@H](CC(=O)O)C(=O)N[C@@H](CCCCN)C(=O)N3)NC(=O)[C@H](C(C)C)NC(=O)[C@H](CCCNC(=N)N)NC(=O)[C@H](CC(N)=O)NC(=O)[C@H](Cc1ccc(O)cc1)NC2=O` [Tap1a-OPT1] (H-GGCLGIFSSCDPENDKCCYNRVCSKKHRWCKWKLW-OH; disulfide 3-18, 10-23, 17-30) gave an IC50 (hNaV1.3) of 6 ± 0.5 nM, an IC50 (hNaV1.4; SEM) of 100 ± 19 nM and an IC50 (hNaV1.6) of 4.6 ± 2.3 nM. For the same compound, the IC50 (hNaV1.5) was greater than 1000 nM, the IC50 (hNaV1.1; [5]) was 17 ± 3 nM and the IC50 (hNaV1.7 [1]; [6]) was 3 ± 0.7 nM. The IC50 (hNaV1.2) was 5 ± 1 nM and the “Kon observed, hNaV1.7” value (hNaV1.7 [4]) was 8.60 ± 1.7 × 10^−3 s^−1.
